Source: ChEMBL document CHEMBL1140928, “Glycolipids and benzylammonium lipids as novel antisepsis agents: synthesis and biological characterization” (J Med Chem, 2009)
pIC50: −log10 of the molar value. Activity calls are given as the source filed them. The calls are words filed in the database; no cut-off is given here.

What was measured:
[1] = Inhibition of lipid A-mediated TLR4 activation in HEK-Blue-4 cells assessed as inhibition of alkaline phosphatase activity by spectrophotometry; type: cell-based
[2] = biological target: Intestinal-type alkaline phosphatase (Homo sapiens) (UniProt P09923); assay: Inhibition of intestinal alkaline phosphatase in lipid A-stimulated HEK-Blue-4 cells at 10 uM
Chain of Intestinal-type alkaline phosphatase (Homo sapiens) (P09923 20-503 limits assumed): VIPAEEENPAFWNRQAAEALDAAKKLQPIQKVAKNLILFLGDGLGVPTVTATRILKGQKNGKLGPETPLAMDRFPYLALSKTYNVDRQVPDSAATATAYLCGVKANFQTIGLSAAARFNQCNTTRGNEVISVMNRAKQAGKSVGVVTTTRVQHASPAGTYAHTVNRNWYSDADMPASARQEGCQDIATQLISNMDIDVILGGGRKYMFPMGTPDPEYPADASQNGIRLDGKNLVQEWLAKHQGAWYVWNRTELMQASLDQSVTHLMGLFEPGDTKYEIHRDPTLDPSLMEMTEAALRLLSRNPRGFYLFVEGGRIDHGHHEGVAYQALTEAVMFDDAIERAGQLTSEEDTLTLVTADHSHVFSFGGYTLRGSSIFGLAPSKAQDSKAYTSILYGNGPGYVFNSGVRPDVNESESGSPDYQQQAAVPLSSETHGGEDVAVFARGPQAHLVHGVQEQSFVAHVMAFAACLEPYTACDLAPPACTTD

[3] = Inhibition of lipid A-induced TLR4 activation in HEK-Blue-4 cells assessed as inhibition of alkaline phosphatase activity at 10 uM by spectrophotometry; type: cell-based
[4] = biological target: Intestinal-type alkaline phosphatase (Bos taurus) (UniProt P19111); assay: Inhibition of calf recombinant intestinal alkaline phosphatase at 10 uM
Chain of Intestinal-type alkaline phosphatase (Bos taurus) (P19111 20-506 limits assumed): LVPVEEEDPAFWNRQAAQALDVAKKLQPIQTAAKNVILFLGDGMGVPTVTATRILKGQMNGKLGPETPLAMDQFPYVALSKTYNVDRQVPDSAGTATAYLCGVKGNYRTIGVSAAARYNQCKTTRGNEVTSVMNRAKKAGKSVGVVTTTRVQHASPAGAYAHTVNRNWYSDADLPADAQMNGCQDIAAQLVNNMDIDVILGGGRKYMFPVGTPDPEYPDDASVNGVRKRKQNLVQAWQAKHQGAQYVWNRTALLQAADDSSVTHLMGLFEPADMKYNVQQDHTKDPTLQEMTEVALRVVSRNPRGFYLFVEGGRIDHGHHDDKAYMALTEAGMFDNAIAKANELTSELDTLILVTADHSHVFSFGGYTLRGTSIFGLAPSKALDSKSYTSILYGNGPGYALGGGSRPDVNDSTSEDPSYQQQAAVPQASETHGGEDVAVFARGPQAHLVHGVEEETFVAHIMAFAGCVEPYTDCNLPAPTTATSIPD

Homo sapiens = organism: Homo sapiens; assay: Inhibition of TNF-alpha-induced alkaline phosphatase activity in HEK-Blue-4 cells at 10 uM by spectrophotometry; type: functional, cell-based
[5] = Cytotoxicity against HEK-Blue-4 cells assessed as effect on cell viability by Cell-Titre Blue assay; type: cell-based; details: human
Mus musculus [6] = assay: Antisepsis activity in LPS-induced C57BL/6J mouse lethal endotoxin shock model assessed as survival after 4 days at 10 mg/kg, ip administered 30 before LPS challenge; type: functional; details: for survival at 10 mg/kg: 96 h, route intraperitoneal
[7] = Cytotoxicity against HEK-Blue-4 cells assessed as diminution of cell viability by Cell-Titre Blue assay; type: cell-based; details: human
Mus musculus [8] = assay: Antisepsis activity in LPS-induced ip dosed C57BL/6J mouse lethal endotoxin shock model assessed as survival after 4 days administered 30 before LPS challenge; type: functional
Mus musculus [9] = assay: Antisepsis activity in LPS-induced C57BL/6J mouse lethal endotoxin shock model assessed as survival after 4 days at 3 mg/kg, ip administered 30 before LPS challenge; type: functional; details: 96 h, route intraperitoneal

SMILES	pIC50 [1]	Activity [2]	Activity [3]	Activity [4]	Activity (Homo sapiens)	Activity [5]	also measured
CCCCCCCCCCCCCCO[C@H]1[C@@H](OC)O[C@H](C[N+](C)(C)C2CCCC2)[C@@H](O)[C@@H]1OCCCCCCCCCCCCCC.[I-]	5.30	inactive	Dose-dependent effect	inactive	inactive	Non-toxic	survival at 10 mg/kg (Mus musculus [6]): 25%
CCCCCCCCCCCCCCO[C@H]1[C@@H](OC)O[C@H](CNC(=O)C2CCCN2)[C@@H](O)[C@@H]1OCCCCCCCCCCCCCC (some centres not stated)	5.23	–	Dose-dependent effect	inactive	–	Non-toxic	–
CCCCCCCCCCCCCCOc1ccc(C[N+](C)(C)C2CCCC2)cc1OCCCCCCCCCCCCCC.[I-]	5.78	inactive	Dose-dependent effect	inactive	inactive	–	Activity [7]: 13%; survival at 10 mg/kg (Mus musculus [6]): 67%
CCCCCCCCCCCCCCO[C@H]1[C@@H](OC)O[C@H](CNC2CCCC2)[C@@H](O)[C@@H]1OCCCCCCCCCCCCCC	< 5.00	–	–	–	–	–	inhibition [3]: 23%; Activity (Mus musculus [8]): inactive
CCCCCCCCCCCCCCO[C@H]1[C@@H](OC)O[C@H](CNOC)[C@@H](O)[C@@H]1OCCCCCCCCCCCCCC	< 5.00	–	–	–	–	–	–
CCCCCCCCCCCCCCO[C@H]1[C@@H](OC)O[C@H](CN)[C@@H](O)[C@@H]1OCCCCCCCCCCCCCC	5.26	inactive	Dose-dependent effect	inactive	inactive	Non-toxic	Activity (Mus musculus [6]): Active; survival at 3 mg/kg (Mus musculus [9]): 100%
CCCCCCCCCCCCCCO[C@H]1[C@@H](OC)O[C@H](COC2CCCC2)[C@@H](O)[C@@H]1OCCCCCCCCCCCCCC	< 5.00	–	–	–	–	–	–
CCOC(=O)C1=CCCC[C@H]1S(=O)(=O)Nc1ccc(F)cc1Cl [RESATORVID]	–	–	–	–	–	–	ED50 (Mus musculus [8]; 96 h): 0.3 mg/kg
